In patent US20160038474A1, “COMPOSITIONS AND METHODS FOR THE MODULATION OF HEMOGLOBIN (S)” (GLOBAL BLOOD THERAPEUTICS, INC., priority 2013, published 2016):

What was measured:
[1] = system: washed red blood cells; experiment: Reverse Hemox assay (OEC), washed red blood cells; assay type: cell-based, human
Experimental: Oxygen Equilibrium Curves (OEC) of whole blood before and after treatment with different concentrations of compounds 12, 22 and 23 were performed as follows using a HEMOX analyzer (TCS Scientific, New Hope, Pa.). Blood samples from homozygous sickle cell patients were obtained though the Hemoglobinopathy Center at Children's Hospital Oakland Research Institute (CHORI) with Institutional Review Board approval. The hematocrit was adjusted to 20% using autologous plasma and the blood samples were incubated for 1 hour at 37° C. in absence or presence of compounds. 100 μl of these samples were added to 5 mL of Hemox butter (30 mM TES, 130 mM NaCl, 5 mM KCl, pH=7.4) at 37° C. and then transferred to the Hemox sample chamber. The samples were saturated with oxygen by flushing with compressed air for 10 minutes. The samples were then flushed with pure nitrogen and the respective absorbances of oxy- and deoxy-Hb are recorded as a function of the solution pO2. The oxygen equilibrium data were then fitted to the Hill Model to obtain values for p50. The deoxygenation curves for both whole blood alone (control) and whole blood in the presence of the compound were collected with the TCS software.
Reverse hemox assay was performed essentially as described in Example 2, above, using either washed red blood cells or whole blood.
Results: Table 4, below, indicates the percent change in p50 (delta p50%) for each compound tested. In the washed red blood cells (RBCs), 5-HMF, compound 5, and compound 12 (1 mM compound) gave p50 of 20, 9 and 7 mm Hg, respectively, compared to the control red blood cells (delta p50=30 mm Hg). To determine the effects of plasma proteins on compound activity. OECs were measured in whole blood from sickle cell disease patients. 5-HMF, compound 5, compound 9, and compound 12 gave p50 of 27, 18, 11 and 6 mm Hg, respectively, compared to the control blood p50 of 30 mm Hg.

[2] = system: hemoglobin and human serum albumin; experiment: In vitro binding to hemoglobin and human serum albumin at physiologic ratio; settings: both proteins present in their respective physiologic ratio
Experimental: However, when the red blood cell compartment is considered, compound 12 unexpectedly partitions into blood to a far greater extent than compound 22 or compound 23. […] When the red blood cell/plasma ratio was measured at the peak concentration, compound 12 partitioned at a ratio of 70 to 1 into the erythrocytes attesting to its preferential partition into the compartment which contains the drug target hemoglobin. Supportive data was reported in an in vitro system measuring binding of compound 12 to hemoglobin and human serum albumin.

[3] = target: T1, purified HbS (Homo sapiens, UniProt P68871+P69905, E7V); experiment: HbS polymerization assay; assay type: biochemical; settings: for Polymerization DTcmpd-DTHbS: [HbS] 50 μM
T1 construct: HbS is purified by the CRO VIRUSYS, from blood obtained from homozygous sickle cell patients; tissue VIRUSYS (CRO that did the purification); host or cells: blood of homozygous sickle cell patients
Experimental: Polymerization assays are carried out in vitro using purified HbS exchanged into 1.8 M potassium phosphate buffer at pH 7.4. Using a slightly modified protocol (Antonini and Brunori, 1971). HbS is purified by the CRO VIRUSYS, from blood obtained from homozygous sickle cell patients through the Hemoglobinopathy Center at Children's Hospital Oakland Research Institute (CHORI) with Institutional Review Board approval. Compounds are prepared in 100% DMSO and a desired amount is added to 50 μM of purified HbS at a final DMSO concentration of 0.3%. Final potassium phosphate concentration is adjusted to 1.8 M using a combination of 2.5 M potassium phosphate stock solution and water at pH 7.4. The reaction mixture is incubated for an hour at 37° C. and then transferred into a 24-well plate for deoxygenation in a glove box containing 99.5% nitrogen and 0.5% oxygen. The 24-well plate is not covered and incubated at 4° C. on a plate cooler inside the glove box for one and a half hours. Fifty μl of the reaction mixture is transferred into a 96-well plate and the absorbance at 700 nm is measured every minute for one hour at 37° C. in a plate reader located inside the glove box. A plot of the absorbance against time is fitted using a Boltzman sigmoidal fit and the delay time (from zero to time at half Vmax) is measured. To compare and rank compounds, delay times are expressed as percent delay (% DT), which is defined as the difference in delay times for HbS/compound and HbS alone multiplied by 100 and divided by the delay time for HbS alone.
The ability of 5-HMF and compound 12 to delay HbS polymerization was evaluated as described in Example 2, above. Purified HbS (50 μM) was pre-incubated with 25 μM, 50 μM, or 100 μM of 5-HMF or compound 12, then passively de-oxygenated at 4° C. in 1.8 M potassium phosphate. Polymerization was induced via temperature jump from 4° C. to 37° C. Polymerization was quantified based on turbidity of the HbS solution under continued hypoxia.

[4] = target: T2, HbS (Homo sapiens, UniProt P68871+P69905, E7V); experiment: 96-well oxygen dissociation assay (ODA); assay type: biochemical
[5] = target: purified Hb (Homo sapiens, UniProt P68871+P69905); experiment: TCS Hemox analyzer with purified Hb; assay type: biochemical; settings: purified Hb 25 μM
Experimental: The agents were then assayed in a TCS Hemox analyzer using purified Hb at 25 μM.

[6] = target: T2, HbS; experiment: 96-well oxygen dissociation assay (ODA); assay type: biochemical; remark: listed apart in the source
Text: Results: Table 4 below lists the change in oxygen affinity (Δoxy state). After two hours of passive deoxygenation, compound 12, at an equimolar concentration to Hb, increased the Hb oxygen affinity by 6-fold.

[7] = ratio of compound 12 to Hb of 1:3

Structure (SMILES): CC(C)n1nccc1-c1ncccc1COc1cccc(O)c1C=O [Compound 12, 2-hydroxy-6-[[2-(2-propan-2-ylpyrazol-3-yl)pyridin-3-yl]methoxy] benzaldehyde]
- Washed RBC OEC (delta p50%) ([1]; [Hb] 1 mM, [cmp] 1 mM): 76%
- p50 ([1]; washed RBCs, 1 mM compound, control 30 mm Hg): 7 mm Hg
- binding preference, hemoglobin versus human serum albumin [2]: preferentially binding to hemoglobin
- Polymerization % DT (class) ([3]; 75 μM compound, 50 μM HbS): †† (activity >80% but ≦120%)
- Polymerization % DT (percent delay) ([3]; 75 μM compound, 50 μM HbS): 108.56%
- HbS polymerization delay (in words) ([3]; HbS 50 μM, 25, 50 or 100 μM compound): delayed HbS polymerization in a dose-dependent manner
- Polymerization DTcmpd-DTHbS ([3]; [Cmpd] 25 μM): 3.9 min
- Polymerization DTcmpd-DTHbS ([3]; [Cmpd] 50 μM): 12.8 min
- Polymerization DTcmpd-DTHbS ([3]; [Cmpd] 100 μM): 22.9 min
- Hb in ODA (Δoxy state) ([4]; [Hb] 3 μM, [cmp] 1 μM): 16
- improvement in oxygen affinity for Hb [4, 7]: two-fold
- more oxygenated Hb present [4, 7]: 16%
- improvement of oxygen affinity versus Hb control ([5]; compound:Hb ratio of 1:3): 15%
- improvement of oxygen affinity versus Hb control ([5]; stoichiometric concentrations): greater than 70%
- potency at increasing the oxygen affinity of HbS compared with 5-HMF ([6]; 96-well ODA): more potent at increasing the oxygen affinity of HbS than 5-hydroxy furfural
- Hb in ODA (Δoxy state) ([6]; [Hb] 3 μM, [cmp] 3 μM): 56
- increase of Hb oxygen affinity ([6]; equimolar concentration to Hb, after two hours of passive deoxygenation): 6 fold
